This is an account of results in ChEMBL document CHEMBL5338706, “Discovery of a potent and selective proteolysis targeting chimera (PROTAC) degrader of NSD3 histone methyltransferase” (Eur J Med Chem, 2022).

The nature of experiment [1]: Downregulation of NSD3 level in human NCI-H520 cells at […] by measuring fold change by Western blot analysis relative to control. It counts as functional. As to conditions: dose 7.5 µM.
The target in experiment [2] is Histone-lysine N-methyltransferase, H3 lysine-36 specific (Homo sapiens) (UniProt Q96L73). The experiment is described as follows: Induction of NSD1 degradation in human NCI-H1703 cells at 3 to […] incubated for 72 hrs by Western blot analysis. The experiment is classed as cell-based. As to conditions: dose 3-7.5 µM.
In experiment [3] the test system is NCI-H1703. In words: Induction of apoptosis in human NCI-H1703 cells assessed as early apoptotic cells at 5 uM measured after 72 hrs by PI/Annexin-V staining based flow cytometry analysis (reference value: 1.47% ). It counts as functional.
In another experiment the test system is NCI-H520. The experiment is described as follows: Induction of apoptosis in human NCI-H520 cells assessed as decrease in Bcl-XL protein expression at […] by measuring fold change by Western blot analysis relative to control. The experiment is classed as functional. As to conditions: dose 7.5 µM.
Experiment [4] has as its system NCI-H1703. In words: Induction of apoptosis in human NCI-H1703 cells assessed as early apoptotic cells at 10 uM measured after 72 hrs by PI/Annexin-V staining based flow cytometry analysis (reference value: 1.47% ). The experiment is classed as functional.
Experiment [5] deals with T1, Histone-lysine N-methyltransferase NSD2 (Homo sapiens) (UniProt O96028).
T1 sequence (whole entry): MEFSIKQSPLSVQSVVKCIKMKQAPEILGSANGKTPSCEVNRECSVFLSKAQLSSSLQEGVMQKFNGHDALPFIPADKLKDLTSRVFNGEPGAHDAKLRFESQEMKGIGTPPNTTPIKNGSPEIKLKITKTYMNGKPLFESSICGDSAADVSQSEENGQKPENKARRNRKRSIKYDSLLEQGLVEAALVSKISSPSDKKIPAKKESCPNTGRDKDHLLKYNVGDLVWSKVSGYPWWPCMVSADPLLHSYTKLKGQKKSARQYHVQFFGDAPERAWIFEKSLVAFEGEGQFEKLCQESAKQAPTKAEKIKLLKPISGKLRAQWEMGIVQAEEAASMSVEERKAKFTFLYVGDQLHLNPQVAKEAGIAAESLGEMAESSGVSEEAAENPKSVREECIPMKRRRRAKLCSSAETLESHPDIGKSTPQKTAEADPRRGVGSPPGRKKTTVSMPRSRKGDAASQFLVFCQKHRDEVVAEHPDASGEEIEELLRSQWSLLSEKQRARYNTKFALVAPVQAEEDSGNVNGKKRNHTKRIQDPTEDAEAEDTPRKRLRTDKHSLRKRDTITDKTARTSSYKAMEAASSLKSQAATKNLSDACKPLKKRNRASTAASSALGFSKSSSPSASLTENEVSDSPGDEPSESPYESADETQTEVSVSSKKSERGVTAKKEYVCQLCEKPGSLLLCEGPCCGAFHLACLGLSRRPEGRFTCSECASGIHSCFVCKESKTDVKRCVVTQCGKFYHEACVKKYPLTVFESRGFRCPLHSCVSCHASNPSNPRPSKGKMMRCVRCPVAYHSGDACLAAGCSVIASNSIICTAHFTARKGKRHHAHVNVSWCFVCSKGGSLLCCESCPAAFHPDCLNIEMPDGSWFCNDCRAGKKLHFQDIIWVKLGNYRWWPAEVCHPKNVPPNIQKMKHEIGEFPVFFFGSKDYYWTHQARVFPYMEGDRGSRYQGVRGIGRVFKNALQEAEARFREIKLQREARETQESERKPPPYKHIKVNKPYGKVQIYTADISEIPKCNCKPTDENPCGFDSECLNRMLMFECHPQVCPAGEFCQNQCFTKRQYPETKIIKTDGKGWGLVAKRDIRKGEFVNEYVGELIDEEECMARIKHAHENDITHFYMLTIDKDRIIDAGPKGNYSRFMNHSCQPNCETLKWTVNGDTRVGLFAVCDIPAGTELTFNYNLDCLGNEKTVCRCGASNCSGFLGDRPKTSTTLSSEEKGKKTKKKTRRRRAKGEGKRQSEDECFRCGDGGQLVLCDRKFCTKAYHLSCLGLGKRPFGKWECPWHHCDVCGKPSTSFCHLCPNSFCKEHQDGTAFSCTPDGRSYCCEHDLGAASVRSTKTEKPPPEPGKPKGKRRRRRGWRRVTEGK
The experiment is described as follows: Induction of NSD2 degradation in human NCI-H1703 cells at 3 to […] incubated for 72 hrs by Western blot analysis. It counts as cell-based. To be noted: dose 3-7.5 µM.

The test system of experiment [6] is A549. In words: Antiproliferative activity against human A549 cells incubated for 3 days by CCK-8 method. It counts as functional, cell-based. To be noted: A549, 72 h.
For experiment [7], the target named is T1, Histone-lysine N-methyltransferase NSD2 (Homo sapiens). In words: Induction of NSD2 degradation in human A549 cells at 5 to 10 uM incubated for 72 hrs by Western blot analysis. As to conditions: dose 5-10 µM. The experiment is classed as cell-based.
Experiment [8] has as its system A549. In words: Antitumor activity against human A549 cells xenografted mouse model assessed as reduction in NSD3 expression level at 100 mg/kg, ip measured within 36 hrs by Western blot analysis. It counts as functional, organism-based.
For experiment [9], the system named is NCI-H1703. The experiment is described as follows: Downregulation of CDC25A level in human NCI-H1703 cells at 3 to […] by Western blot analysis. To be noted: dose 3-7.5 µM. The experiment is classed as functional, cell-based.

Calls of active or inactive are those of the source. No cut-off for these calls is given here.

Sequence of Histone-lysine N-methyltransferase, H3 lysine-36 specific (Homo sapiens) (Q96L73 whole entry): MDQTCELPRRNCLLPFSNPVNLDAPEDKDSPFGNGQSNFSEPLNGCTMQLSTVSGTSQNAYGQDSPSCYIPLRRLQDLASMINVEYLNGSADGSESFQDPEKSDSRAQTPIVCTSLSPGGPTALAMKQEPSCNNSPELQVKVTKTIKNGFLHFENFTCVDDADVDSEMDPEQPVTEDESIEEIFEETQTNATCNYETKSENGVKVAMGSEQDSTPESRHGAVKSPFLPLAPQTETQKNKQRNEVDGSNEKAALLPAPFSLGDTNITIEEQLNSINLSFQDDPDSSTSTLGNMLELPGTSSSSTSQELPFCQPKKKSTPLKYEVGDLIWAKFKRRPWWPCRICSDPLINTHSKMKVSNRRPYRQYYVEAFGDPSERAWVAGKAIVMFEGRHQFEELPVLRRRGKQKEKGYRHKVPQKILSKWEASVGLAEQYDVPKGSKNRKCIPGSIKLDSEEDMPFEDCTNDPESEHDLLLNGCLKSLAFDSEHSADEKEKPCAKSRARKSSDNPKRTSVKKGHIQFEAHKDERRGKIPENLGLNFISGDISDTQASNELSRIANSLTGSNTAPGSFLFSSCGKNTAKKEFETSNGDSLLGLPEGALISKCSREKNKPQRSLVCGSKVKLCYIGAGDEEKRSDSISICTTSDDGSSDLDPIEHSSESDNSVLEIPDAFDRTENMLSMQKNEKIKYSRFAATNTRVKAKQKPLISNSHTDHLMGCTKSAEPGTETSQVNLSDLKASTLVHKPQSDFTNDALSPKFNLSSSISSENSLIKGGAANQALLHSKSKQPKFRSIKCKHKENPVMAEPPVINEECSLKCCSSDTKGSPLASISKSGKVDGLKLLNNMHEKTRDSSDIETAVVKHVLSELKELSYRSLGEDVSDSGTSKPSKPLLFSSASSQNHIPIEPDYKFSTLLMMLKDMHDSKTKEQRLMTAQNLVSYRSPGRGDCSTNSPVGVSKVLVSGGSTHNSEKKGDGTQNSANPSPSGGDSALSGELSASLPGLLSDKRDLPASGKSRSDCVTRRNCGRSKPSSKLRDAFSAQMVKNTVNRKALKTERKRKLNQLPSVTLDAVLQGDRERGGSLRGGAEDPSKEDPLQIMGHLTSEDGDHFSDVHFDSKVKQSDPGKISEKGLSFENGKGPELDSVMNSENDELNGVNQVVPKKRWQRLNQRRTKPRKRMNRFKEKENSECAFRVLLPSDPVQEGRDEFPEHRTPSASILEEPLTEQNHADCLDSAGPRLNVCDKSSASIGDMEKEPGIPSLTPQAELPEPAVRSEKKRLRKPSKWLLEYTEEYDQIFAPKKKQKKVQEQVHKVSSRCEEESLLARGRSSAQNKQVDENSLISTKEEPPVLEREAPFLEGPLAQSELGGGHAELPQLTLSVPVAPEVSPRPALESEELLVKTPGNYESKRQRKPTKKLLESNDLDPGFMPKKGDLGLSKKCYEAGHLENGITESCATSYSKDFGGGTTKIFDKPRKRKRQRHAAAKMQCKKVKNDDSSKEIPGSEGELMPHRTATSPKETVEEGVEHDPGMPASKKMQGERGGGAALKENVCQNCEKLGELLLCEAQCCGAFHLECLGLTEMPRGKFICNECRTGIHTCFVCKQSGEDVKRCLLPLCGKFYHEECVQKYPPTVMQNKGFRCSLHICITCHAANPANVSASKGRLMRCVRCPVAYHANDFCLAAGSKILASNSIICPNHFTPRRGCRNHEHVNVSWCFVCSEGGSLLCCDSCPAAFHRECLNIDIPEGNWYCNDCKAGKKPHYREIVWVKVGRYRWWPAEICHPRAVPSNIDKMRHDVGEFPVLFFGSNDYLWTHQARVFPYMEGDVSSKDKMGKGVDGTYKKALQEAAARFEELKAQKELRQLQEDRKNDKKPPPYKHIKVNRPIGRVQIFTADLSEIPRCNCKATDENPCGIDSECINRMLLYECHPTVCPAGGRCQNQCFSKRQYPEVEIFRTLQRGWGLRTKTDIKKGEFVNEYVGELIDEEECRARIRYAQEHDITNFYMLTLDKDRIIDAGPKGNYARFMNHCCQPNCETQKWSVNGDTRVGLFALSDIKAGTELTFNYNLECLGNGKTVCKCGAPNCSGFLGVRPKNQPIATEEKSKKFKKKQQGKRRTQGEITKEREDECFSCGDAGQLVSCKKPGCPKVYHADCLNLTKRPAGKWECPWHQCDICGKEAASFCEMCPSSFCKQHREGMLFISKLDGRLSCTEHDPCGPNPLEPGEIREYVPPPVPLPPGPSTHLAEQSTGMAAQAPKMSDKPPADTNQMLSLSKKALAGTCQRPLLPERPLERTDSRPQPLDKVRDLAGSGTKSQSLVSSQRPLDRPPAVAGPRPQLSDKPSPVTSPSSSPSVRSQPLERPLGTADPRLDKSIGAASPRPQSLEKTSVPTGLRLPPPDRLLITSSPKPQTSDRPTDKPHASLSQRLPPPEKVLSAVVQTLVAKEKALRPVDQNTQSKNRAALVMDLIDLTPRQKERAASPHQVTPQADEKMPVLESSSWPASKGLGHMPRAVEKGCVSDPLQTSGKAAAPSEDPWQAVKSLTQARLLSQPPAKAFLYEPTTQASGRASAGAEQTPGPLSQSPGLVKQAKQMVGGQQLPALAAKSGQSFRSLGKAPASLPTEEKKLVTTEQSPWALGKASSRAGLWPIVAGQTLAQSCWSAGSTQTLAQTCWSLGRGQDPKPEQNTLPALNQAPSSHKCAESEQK

Consider `Cc1cc(CNCCCCCCCCCCC(=O)N[C@H](C(=O)N2C[C@H](O)C[C@H]2C(=O)N[C@@H](C)c2ccc(-c3scnc3C)cc2)C(C)(C)C)cc(C)c1-c1ncn(C)c1-c1ccnc2cc(F)ccc12`, for which the “fold change (FC)” value came to 0.61 in experiment [1] and 0.8 in the experiment on NCI-H520. Further, the result in experiment [2], in experiment [5] and in experiment [7] was inactive. Moreover, the values for the Activity with NCI-H1703 [3] and in the experiment with NCI-H1703 [4] were 7.5% and 12.8%, respectively. The molecule further came in with an IC50 in the experiment with A549 [6] of 5.49 µM. Besides, the outcome with A549 [8] and with NCI-H1703 [9] was Active.
